Source: patent publication US8946266B2, “Substituted triazole and imidazole derivatives as gamma secretase modulators” (Janssen Pharmaceuticals, Inc., priority 2009, dated 2015)

Assays:
Format in all cases: cell-based
Aβtotal [1] = assay: γ-secretase-modulating activity, Method 2: Aβtotal Alphalisa in supernatant of SKNBE2 cells carrying APP 695-wild type (Table 3b); conditions: overnight, read-out: IC50 Aβtot
How it was run: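 Secreted Aβtotal was quantified by AlphaLISA pairing an N-terminal antibody (JRF/AβN/25) with biotinylated mid-region 4G8. Wild-type APP 695 SKNBE2 cells received serially varied compound overnight at 37 °C; IC50 came from a 4-parameter nonlinear regression of percent of control against log dose.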

Aβ42 = assay: γ-secretase-modulating activity, Method 1: Aβ42 sandwich ELISA in supernatant of SKNBE2 cells carrying APP 695-wild type (Table 3a); conditions: 18 h, averaged IC50 values
Procedure: (§1) Pharmacology A) Screening of the Compounds of the Invention for γ-Secretase-Modulating Activity A1) Method 1
(§2) Screening was carried out using SKNBE2 cells carrying the APP 695-wild type, grown in Dulbecco's Modified Eagle's Medium/Nutrient mixture F-12 (DMEM/NUT-mix F-12) (HAM) provided by Gibco (cat no. 31330-38) containing 5% Serum/Fe supplemented with 1% non-essential amino acids. Cells were grown to near confluency.
(§3) The screening was performed using the assay as described in Citron et al (1997) Nature Medicine 3: 67. Briefly, cells were plated in a 96-well plate at about 10^5 cells/ml one day prior to addition of compounds. Compounds were added to the cells in Ultraculture (Lonza, BE12-725F) supplemented with 1% glutamine (Invitrogen, 25030-024) for 18 h. The media were assayed by two sandwich ELISAs, for Aβ42 and Aβtotal. Toxicity of the compounds was assayed by WST-1 cell proliferation reagent (Roche, 1 644 807) according to the manufacturer's protocol.
To quantify the amount of Aβ42 in the cell supernatant, commercially available Enzyme-Linked-Immunosorbent-Assay (ELISA) kits were used (Innotest® β-Amyloid(1-42), Innogenetics N.V., Ghent, Belgium). The Aβ42 ELISA was performed essentially according to the manufacturer's protocol. Briefly, the standards (dilutions of synthetic Aβ1-42) were prepared in polypropylene Eppendorf with final concentrations of 8000 down to 3.9 pg/ml (1/2 dilution step). Samples, standards and blanks (100 μl) were added to the anti-Aβ42-coated plate supplied with the kit (the capture antibody selectively recognizes the C-terminal end of the antigen). The plate was allowed to incubate 3 h at 25° C. in order to allow formation of the antibody-amyloid complex. Following this incubation and subsequent wash steps a selective anti-Aβ-antibody conjugate (biotinylated 3D6) was added and incubated for a minimum of 1 hour (h) in order to allow formation of the antibody-Amyloid-antibody-complex. After incubation and appropriate wash steps, a Streptavidine-Peroxidase-Conjugate was added, followed 30 minutes later by an addition of 3,3′,5,5′-tetramethylbenzidine (TMB)/peroxide mixture, resulting in the conversion of the substrate into a coloured product. This reaction was stopped by the addition of sulfuric acid (0.9 N) and the colour intensity was measured by means of photometry with an ELISA-reader with a 450 nm filter.
To obtain the values reported in Table 3a, the data were calculated as percentage of the maximum amount of amyloid Beta 42 measured in the absence of the test compound. The sigmoidal dose response curves were analyzed using non-linear regression analysis with percentage of the control plotted against the log concentration of the compound. A 4-parameter equation was used to determine the IC50. The values reported in Table 3a are averaged IC50 values.

Aβtotal [2] = assay: γ-secretase-modulating activity, Method 1: Aβtotal sandwich ELISA in supernatant of SKNBE2 cells carrying APP 695-wild type; conditions: Table 3a, 18 h, averaged IC50 values
Procedure: as §1, §2, §3
To quantify the amount of Aβtotal in the cell supernatant, samples and standards were added to a 6E10-coated plate. The plate was allowed to incubate overnight at 4° C. in order to allow formation of the antibody-amyloid complex. Following this incubation and subsequent wash steps a selective anti-Aβ-antibody conjugate (biotinylated 4G8) was added and incubated for a minimum of 1 h in order to allow formation of the antibody-Amyloid-antibody-complex. After incubation and appropriate wash steps, a Streptavidine-Peroxidase-Conjugate was added, followed 30 minutes later by an addition of Quanta Blu fluorogenic peroxidase substrate according to the manufacturer's instructions (Pierce Corp., Rockford, Ill.).

Row | SMILES | IC50 (Aβtotal [1]; Homo sapiens) [µM] | IC50 (Aβ42; Homo sapiens) [µM] | IC50 (Aβtotal [2]; Homo sapiens) [µM] | IC50 (Aβtotal [1]) [µM] | IC50 (Aβ42) [µM] | IC50 (Aβtotal [2]) [µM]
1 | COc1cc(-c2nc(C)c(-c3ccccc3)[nH]2)ccc1-n1cnc(C)c1 [Compound 11] | > 10 | 0.11 | > 3 |  |  | 
2 | COc1cc(-c2nc(-c3ccccc3)n(C)n2)ccc1-n1cnc(C)c1 [Compound 9] | > 10 | 0.79 | > 30 |  |  | 
3 | COc1cc(-c2nc(Nc3ccc(F)cc3C(F)(F)F)n(C)n2)ccc1-n1cnc(C)c1 [Compound 15] |  |  |  | > 10 | 0.25 | 11.5
4 | COc1cc(-c2nc(Nc3cccc(C(F)(F)F)c3)n(C)n2)ccc1-n1cnc(C)c1 [Compound 146] |  |  |  | 4.07 |  | 
